Read-outs that look alike come from different tables or passages of the source.
Assays:
[1] = biological target: T1, rat histamine H3 receptor (Rattus norvegicus, UniProt Q9QYN8); test: Rat H3 radioligand binding ([3H]-N-alpha-methylhistamine, SPA)
T1 construct: encoding the entire 445-amino-acid rat histamine H3 receptor; expressed in transfected cells; membrane preparation
Summary of the method: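 SPA-bead binding assay using [3H]-N-alpha-methylhistamine (approximately 1 nM final) with test compounds from 0.01 nM to 30 μM. Rat H3 receptor membranes came from stably transfected CHO-A3 cells; incubation ran 4 h at room temperature, in the dark, in Tris pH 7.4 buffer with MgCl2 and BSA. Clobenpropit (10 μM) gave non-specific binding.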

[2] = biological target: T2, human H3 receptor (Homo sapiens, UniProt Q9Y5N1); test: Human H3 radioligand binding ([3H]-N-alpha-methylhistamine, SPA)
T2 construct: expressed in transfected cells
Summary of the method: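 Compounds (0.01 nM-30 μM) competed with approximately 1 nM [3H]-N-alpha-methylhistamine for human H3 receptor in membranes of stably transfected CHO cells, 10 μg protein per well, in Tris-HCl pH 7.4/MgCl2/BSA buffer for 4 h at room temperature. Bound radioligand measured by scintillation proximity; 10 μM clobenpropit gave non-specific binding.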

[3] = Rat H3 binding, Table B, Examples 136-362, read-out: rat H3 binding Ki
[4] = Human H3 binding, Table B, Examples 136-362, read-out: hum H3 binding Ki
[5] = Table C, rat H3 binding, read-out: Rat H3 Ki
[6] = Table C, human H3 binding, read-out: Human H3 Ki
[7] = rat H3 binding, Table D, read-out: Rat H3 Ki
[8] = human H3 binding, Table D, read-out: Human H3 Ki
[9] = Table A, rat H3 binding, read-out: Rat Ki
[10] = Table A, human H3 binding, read-out: Human Ki

T1 sequence (Q9QYN8 whole entry): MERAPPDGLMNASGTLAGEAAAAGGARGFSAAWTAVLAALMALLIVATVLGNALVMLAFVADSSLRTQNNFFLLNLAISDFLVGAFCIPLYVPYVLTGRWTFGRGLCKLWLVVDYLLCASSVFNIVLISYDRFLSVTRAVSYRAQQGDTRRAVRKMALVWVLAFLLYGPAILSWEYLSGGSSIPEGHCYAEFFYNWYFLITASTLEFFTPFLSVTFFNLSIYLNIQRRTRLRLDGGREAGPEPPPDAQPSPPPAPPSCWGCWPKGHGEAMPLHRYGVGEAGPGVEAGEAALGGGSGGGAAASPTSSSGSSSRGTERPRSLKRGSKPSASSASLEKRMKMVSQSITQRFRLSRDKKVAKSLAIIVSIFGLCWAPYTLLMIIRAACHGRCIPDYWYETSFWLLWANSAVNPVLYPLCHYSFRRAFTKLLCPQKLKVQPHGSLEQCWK
T2 sequence (Q9Y5N1 whole entry): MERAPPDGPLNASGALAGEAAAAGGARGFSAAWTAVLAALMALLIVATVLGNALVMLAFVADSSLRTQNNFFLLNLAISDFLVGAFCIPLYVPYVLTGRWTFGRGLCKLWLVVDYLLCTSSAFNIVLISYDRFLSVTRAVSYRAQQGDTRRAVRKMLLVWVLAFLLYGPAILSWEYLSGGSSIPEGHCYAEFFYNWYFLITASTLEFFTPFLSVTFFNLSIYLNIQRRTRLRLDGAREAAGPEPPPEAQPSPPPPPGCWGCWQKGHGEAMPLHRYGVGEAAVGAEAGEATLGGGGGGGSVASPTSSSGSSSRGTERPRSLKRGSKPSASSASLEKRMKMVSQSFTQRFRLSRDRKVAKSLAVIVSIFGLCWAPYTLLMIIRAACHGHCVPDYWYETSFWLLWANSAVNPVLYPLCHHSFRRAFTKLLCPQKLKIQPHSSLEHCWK

SMILES	Ki [1, 3] [nM]	melting point	Ki [2, 4] [nM]	Ki [1, 7] [nM]	Ki [2, 8] [nM]	also measured
CC(C)NC(=O)c1ccc(-c2ccc3c(c2)COC2(CCN(C4CCC4)CC2)O3)cc1F [Example 356]	< 200	146.5 to 148 °C	< 200	–	–	–
c1cc2c(cc1N1CCOCC1)CCC1(CCN(C3CCC3)CC1)O2 [Example 403]	–	> 285 °C (dec.)	–	–	–	Ki [1, 5]: < 200 nM; Ki [2, 6]: < 200 nM
O=C(C1CCCN(c2ccc3c(c2)CCC2(CCN(C4CCC4)CC2)O3)C1)N1CCCC1 (stereo not drawn) [Example 451]	–	305 to 307 °C	–	–	–	Ki ([1]; read-out: Rat H3 kI): < 200 nM; Ki ([2]; read-out: Human H3 Ki): < 200 nM
O[C@@H]1CCN(c2ccc3c(c2)COC2(CCN(C4CCC4)CC2)O3)C1 [Example 347]	< 200	70.2 to 72.2 °C	< 200	–	–	–
COc1ncc(-c2ccc3c(c2)COC2(CCN(C4CCC4)CC2)O3)cc1F [Example 714]	–	175 to 177 °C	–	< 200	< 200	–
c1cncc(CNc2ccc3c(c2)COC2(CCN(C4CCC4)CC2)O3)c1 [Example 321]	< 200	117 to 118 °C	< 200	–	–	–
Fc1ncccc1-c1ccc2c(c1)COC1(CCN(C3CCC3)CC1)O2 [Example 47]	–	95 to 100 °C	–	–	–	Ki [1, 9]: < 200 nM; Ki [2, 10]: < 200 nM
CC(C)Cn1cc(-c2ccc3c(c2)CCC2(CCN(C4CCC4)CC2)O3)cn1 [Example 187]	< 200	106 to 108 °C	< 200	–	–	–
CCCn1cc(-c2ccc3c(c2)CCC2(CCN(C4CCC4)CC2)O3)cn1 [Example 183]	< 200	97 to 99 °C	< 200	–	–	–
CS(=O)(=O)N1CCN(c2ccc3c(c2)CCC2(CCN(C4CCC4)CC2)O3)CC1 [Example 375]	–	240 to 242 °C	–	–	–	Ki [1, 5]: < 200 nM; Ki [2, 6]: < 200 nM
COc1cc(-c2ccc3c(c2)COC2(CCN(C4CCC4)CC2)O3)c(F)cn1 [Example 754]	–	135 to 136 °C	–	< 200	< 200	–
CN(C)C(=O)c1cccc(COc2ccc3c(c2)CCC2(CCN(C4CCC4)CC2)O3)n1 [Example 670]	–	167 to 170 °C	–	< 200	< 200	–
O=c1cccnn1-c1ccc2c(c1)COC1(CCN(C3CCC3)CC1)O2 [Example 228]	200 to 1000	173 to 174 °C	200 to 1000	–	–	–
CC(C)C(=O)NC1CCN(c2ccc3c(c2)COC2(CCN(C4CCC4)CC2)O3)CC1 [Example 324]	< 200	208.4 to 210.6 °C	< 200	–	–	–
CC(=O)N(c1ccc2c(c1)COC1(CCN(C3CCC3)CC1)O2)c1ccccn1 [Example 253]	< 200	53 to 55 °C	< 200	–	–	–
CO[C@H]1CCN(C(=O)c2ccc(-c3ccc4c(c3)CCC3(CCN(C5CCC5)CC3)O4)cc2)C1 [Example 211]	< 200	70.2 to 71 °C	< 200	–	–	–
CCc1[nH]c(=O)ccc1-c1ccc2c(c1)COC1(CCN(C3CCC3)CC1)O2 [Example 767]	–	230 to 231 °C	–	< 200	< 200	–
Cc1nc2cccc(C(F)(F)F)c2c(=O)n1-c1ccc2c(c1)COC1(CCN(C3CCC3)CC1)O2 [Example 791]	–	221 to 222 °C	–	< 200	< 200	–
O=C(NC[C@H]1CCCO1)c1ccc(-c2ccc3c(c2)COC2(CCN(C4CCC4)CC2)O3)cc1 [Example 67]	–	184 to 186 °C	–	–	–	Ki [1, 9]: < 200 nM; Ki [2, 10]: < 200 nM
O=C(NC1CCOCC1)c1ccc(-c2ccc3c(c2)COC2(CCN(C4CCC4)CC2)O3)cc1O [Example 705]	–	193 to 195 °C	–	< 200	< 200	–
COc1cc(C(=O)Nc2ccc3c(c2)COC2(CCN(C4CCC4)CC2)O3)ccn1 [Example 267]	< 200	175 to 176 °C	< 200	–	–	–
CCOCC1CCN(c2ccc3c(c2)COC2(CCN(C4CCC4)CC2)O3)CC1 [Example 627]	–	85.2 to 86.5 °C	–	< 200	< 200	–
CC(C)c1nnc(CCc2ccc3c(c2)COC2(CCN(C4CCC4)CC2)O3)o1 [Example 695]	–	101 to 103 °C	–	< 200	< 200	–
Cn1cc(-c2ccc3c(c2)COC2(CCN(C4CCC4)CC2)O3)c(CO)cc1=O [Example 770]	–	120 to 123 °C	–	< 200	< 200	–
CN1CCN(c2ccc3c(c2)CCC2(CCN(C4CCC4)CC2)O3)C1=O [Example 121]	–	228 to 230 °C	–	–	–	Ki [1, 9]: < 200 nM; Ki [2, 10]: < 200 nM

SMILES	Ki [1, 3] [nM]	melting point	Ki [2, 4] [nM]	Ki [1, 7] [nM]	Ki [2, 8] [nM]	also measured
FC(F)(F)c1ncccc1-c1ccc2c(c1)COC1(CCN(C3CCC3)CC1)O2 [Example 753]	–	190 to 192 °C	–	200 to 1000	200 to 1000	–
Cc1cnc(-c2ccc3c(c2)COC2(CCN(C4CCC4)CC2)O3)c(C)n1 [Example 731]	–	224 to 225 °C	–	< 200	< 200	–
COCc1cc(-c2ccc3c(c2)COC2(CCN(C4CCC4)CC2)O3)c[nH]c1=O [Example 805]	–	212 to 214 °C	–	< 200	< 200	–
COc1ncc(-c2ccc3c(c2)COC2(CCN(C4CCC4)CC2)O3)cc1O [Example 788]	–	61 to 63 °C	–	< 200	< 200	–
O=C(Nc1ccc2c(c1)COC1(CCN(C3CCC3)CC1)O2)c1cccnc1 [Example 149]	< 200	215 to 217 °C	< 200	–	–	–
c1csc(CNc2ccc3c(c2)COC2(CCN(C4CCC4)CC2)O3)c1 [Example 344]	< 200	112 to 113 °C	< 200	–	–	–
O=C(Cc1cccnc1)Nc1ccc2c(c1)COC1(CCN(C3CCC3)CC1)O2 [Example 333]	< 200	167 to 169 °C	< 200	–	–	–
O=c1[nH]cc(-c2ccc3c(c2)COC2(CCN(C4CCC4)CC2)O3)cc1Cl [Example 658]	–	221.5 to 223.7 °C	–	< 200	< 200	–
CNC(=O)C1CC(O)(c2ccc3c(c2)COC2(CCN(C4CCC4)CC2)O3)C1 (stereo not drawn) [Example 494]	–	246 to 248 °C	–	–	–	Ki ([1]; read-out: Rat H3 kI): < 200 nM; Ki ([2]; read-out: Human H3 Ki): < 200 nM
OC(c1ccc2c(c1)COC1(CCN(C3CCC3)CC1)O2)c1nccs1 (stereo not drawn) [Example 664]	–	70 to 72 °C	–	< 200	< 200	–
COCCN(C)C(=O)c1c(F)cc(-c2ccc3c(c2)COC2(CCN(C4CCC4)CC2)O3)cc1F [Example 359]	< 200	78 to 80 °C	< 200	–	–	–
Cc1ccc(-c2ccc3c(c2)COC2(CCN(C4CCC4)CC2)O3)cn1 [Example 31]	–	137 to 139 °C	–	–	–	Ki [1, 9]: < 200 nM; Ki [2, 10]: < 200 nM
COC(c1ccc2c(c1)COC1(CCN(C3CCC3)CC1)O2)C1CCS(=O)(=O)CC1 (stereo not drawn) [Example 545]	–	178 to 180 °C	–	–	–	Ki ([1]; read-out: Rat H3 kI): < 200 nM; Ki ([2]; read-out: Human H3 Ki): < 200 nM
COc1cc(C)c(-c2ccc3c(c2)CCC2(CCN(C4CCC4)CC2)O3)cn1 [Example 769]	–	127 to 128 °C	–	< 200	< 200	–
O=C(Nc1ccc2c(c1)COC1(CCN(C3CCC3)CC1)O2)c1ccc2[nH]ncc2c1 [Example 338]	< 200	249 to 250 °C	< 200	–	–	–
Cc1cc(C(=O)NC2CCOCC2)ccc1-c1ccc2c(c1)COC1(CCN(C3CCC3)CC1)O2 [Example 687]	–	184 to 185 °C	–	< 200	< 200	–
c1ccc(OC2CCN(c3ccc4c(c3)CCC3(CCN(C5CCC5)CC3)O4)CC2)cc1 [Example 432]	–	> 265 °C (dec.)	–	–	–	Ki [1, 5]: < 200 nM; Ki [2, 6]: < 200 nM
CC(C)NC(=O)c1ccc(-c2ccc3c(c2)CCC2(CCN(C4CCC4)CC2)O3)cc1Cl [Example 587]	–	155 to 156 °C	–	< 200	< 200	–
CS(=O)(=O)c1ccc(-c2ccc3c(c2)CC2(CCN(C4CCC4)CC2)O3)cc1 [Example 135, 1′-Cyclobutyl-spirobenzofuran-2(3H)-4′-piperidine-(5-(4-methylsulfonylphenyl))]	–	> 25 °C	–	–	–	Ki [1, 9]: < 200 nM; Ki [2, 10]: < 200 nM
COc1ccc(-c2ccc3c(c2)COC2(CCN(C4CCC4)CC2)O3)nc1 [Example 650]	–	123 to 126 °C	–	< 200	< 200	–
CN(C)c1cc(C(=O)Nc2ccc3c(c2)COC2(CCN(C4CCC4)CC2)O3)ccn1 [Example 314]	< 200	213 to 215 °C	< 200	–	–	–
CNC(=O)c1ccc(-c2ccc3c(c2)COC2(CCN(C4CCC4)CC2)O3)cc1C [Example 205]	< 200	174 to 176.2 °C	< 200	–	–	–
O=C(C1CC(O)(c2ccc3c(c2)CCC2(CCN(C4CCC4)CC2)O3)C1)N1CCCC1 (stereo not drawn) [Example 569]	–	180 to 181 °C	–	–	–	Ki ([1]; read-out: Rat H3 kI): < 200 nM; Ki ([2]; read-out: Human H3 Ki): < 200 nM
COc1ccc(-c2ccc3c(c2)COC2(CCN(C4CC(CO)C4)CC2)O3)cn1 (stereo not drawn) [Example 717]	–	123 to 125 °C	–	200 to 1000	200 to 1000	–

Source: patent US8513232B2, “Substituted spirocyclic piperidine derivatives as histamine-3 (H3) receptor ligands” (Cephalon, Inc., priority 2008, dated 2013)
